≈ marks a conversion by molar mass, not a printed value.
System: Trypanosoma cruzi
Test: Growth inhibitory activity against Trypanosoma cruzi (Epimastigote)
Type: functional, organism-based

## C#CCOC(=O)NCCOc1ccc(C[C@@H]2CCCC[C@H]2O)cc1
  IC50: > 100 µg/mL

## CC(C)OC(=O)NCCOc1ccc(C[C@@H]2CCCCC23OCCO3)cc1
  IC50: 145 µg/mL (≈ 384 µM)

## CC(C)OC(=O)NCCOc1ccc(C[C@@H]2CCCC[C@H]2O)cc1
  IC50: 194 µg/mL (≈ 578 µM)

## CCCOC(=O)NCCOc1ccc(C[C@@H]2CCCCC23OCCO3)cc1
  IC50: > 200 µg/mL

## CC(=O)N1CCN(c2ccc(OC[C@H]3CO[C@](Cn4ccnc4)(c4ccc(Cl)cc4Cl)O3)cc2)CC1 [KETOCONAZOLE]
  IC50: 1.7 µg/mL (≈ 3.2 µM)

## CCCOC(=O)NCCOc1ccc(C[C@@H]2CCCC[C@H]2O)cc1
  IC50: 37.3 µg/mL (≈ 111 µM)

## CCOC(=O)NCCOc1ccc(C[C@@H]2CCCC[C@H]2O)cc1
  IC50: 62.3 µg/mL (≈ 194 µM)

## CCCOC(=O)NCCOc1ccc(C[C@@H]2CCCC[C@@H]2O)cc1
  IC50: 45.7 µg/mL (≈ 136 µM)

## COC(=O)NCCOc1ccc(C[C@@H]2CCCC[C@H]2O)cc1
  IC50: > 200 µg/mL

— ChEMBL document CHEMBL1130677, “Growth inhibitory effect of juvenile hormone analogues on epimastigotes of Trypanosoma cruzi” (Bioorg Med Chem Lett, 1998)
